According to patent publication US11446298B2, “Pyrimidine derivatives” (Idorsia Pharmaceuticals Ltd, priority 2017, dated 2022):

Legend:
Assay type in all cases: cell-based
PTGER4 (EP4) = target: T1, PTGER4 (EP4) (Homo sapiens, UniProt P35408); assay: hEP4 b-Arrestin Assay (PathHunter HEK 293 PTGER4 b-arrestin cells, PGE2 20 nM); details: antagonistic activity, beta-arrestin assay, HEK 293 PTGER4 cells, PGE2 20 nM (EC80); read-out: hEP4 b-arr IC50
T1 construct: host or cells: HEK 293 (PathHunter, stably transfected)
T1 sequence (P35408 whole entry): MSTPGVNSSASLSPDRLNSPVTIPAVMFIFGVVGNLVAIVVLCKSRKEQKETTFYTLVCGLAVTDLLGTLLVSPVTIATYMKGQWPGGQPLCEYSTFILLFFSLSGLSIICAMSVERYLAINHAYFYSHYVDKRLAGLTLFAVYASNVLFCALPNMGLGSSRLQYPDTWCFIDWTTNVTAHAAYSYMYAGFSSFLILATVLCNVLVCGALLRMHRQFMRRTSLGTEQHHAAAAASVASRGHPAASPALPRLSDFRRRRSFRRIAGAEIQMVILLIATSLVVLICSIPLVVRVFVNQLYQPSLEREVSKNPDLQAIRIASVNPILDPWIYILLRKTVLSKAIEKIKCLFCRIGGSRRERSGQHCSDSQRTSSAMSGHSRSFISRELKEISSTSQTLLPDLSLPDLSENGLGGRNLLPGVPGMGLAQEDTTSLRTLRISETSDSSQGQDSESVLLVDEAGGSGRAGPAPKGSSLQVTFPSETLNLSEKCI
Experimental: (§1) The antagonistic activities of the compounds of formula (I) on the EP2 and EP4 receptors are also determined in accordance with the following experimental method.
(§2) The assay is using the PathHunter™ HEK 293 PTGER2 and PTGER4 b-arrestin cell lines from DiscoverX. The system is based on the Enzyme Fragment Complementation Technology. Two complementing fragments of the b-galactosidase enzyme are expressed within stably transfected cells. The larger portion of b-gal, termed EA for Enzyme Acceptor, is fused to the C-terminus of b-arrestin 2. The smaller fragment, termed ProLink™ tag, is fused to PTGER2 (EP2) or PTRGER4 (EP4) at the C-terminus. Upon activation, b-arrestin is recruited which forces the interaction of ProLink and EA, allowing complementation of the two fragments of b-gal and the formation of a functional enzyme which is capable of hydrolysing the substrate and generating a chemiluminescent signal.
(§3) The HEK 293 PTGER4 b-arrestin cells (DiscoverX 93-030-4C1) are detached from culture dishes with a cell dissociation buffer (Invitrogen, 13151-014), and collected in growing medium (GM: DMEM+Glutamax-I (Invitrogen 32430)/10% FCS, 1% Penicilin/streptomycin). 5000 cells per well of a 384 well plate (white with white bottom Greiner 781080) are seeded in 20 ul per well of GM. Plate is incubated at 37° C., 5% CO2 for 24 hours.
(§4) Stock solutions of test compounds are made at a concentration of 10 mM in DMSO, and serially diluted in DMSO to concentrations required for inhibition dose response curves (tested concentration range 10 μM-2 nM or 1 μM-0.2 nM).
PGE2 (Cayman 14010, stock solution: 100 μM in DMSO) is used as agonist at 20 nM final concentration, corresponding to EC80.
Five microliters of diluted compounds are transferred into the assay plate. Plate is pre-incubated 15 minutes at 37° C. Then five microliters of PGE2 (final conc. 20 nM) are transferred into the assay plate. Plate is incubated 120 minutes at 37° C.
(§5) PathHunter Glo Detection Kit components are thawed and mix according to manufacturer's instructions: 1 part Galacton Star Substrate with 5 parts Emerald II™ Solution, and 19 parts of PathHunter Cell Assay Buffer, respectively. Twelve μl of reagent are transferred to the assay plate and incubate for 1 hour at room temperature in the dark. Luminescence counts are read on a BMG Fluostar Optima reader according to manufacturer's instructions.
(§6) For each compound concentration calculate of the percentage of activity compared to DMSO control value as average ±STDEV. (each concentration is measured in duplicate)
(§7) IC50 values and curves are generated with XLfit software (IDBS) using Dose-Response One Site model 203. When compounds were measured multiple times, mean values are given.

EP2 = target: T2, EP2 (Homo sapiens, UniProt P43116); assay: hEP2 cAMP Assay (SF295 glioblastoma cells, HTRF cAMP, PGE2 75 nM); details: antagonistic activity, PGE2 75 nM (EC80)
T2 construct: SF295 glioblastoma cells express high endogenous EP2 and no EP4; host or cells: SF295 glioblastoma cells
T2 sequence (P43116 whole entry): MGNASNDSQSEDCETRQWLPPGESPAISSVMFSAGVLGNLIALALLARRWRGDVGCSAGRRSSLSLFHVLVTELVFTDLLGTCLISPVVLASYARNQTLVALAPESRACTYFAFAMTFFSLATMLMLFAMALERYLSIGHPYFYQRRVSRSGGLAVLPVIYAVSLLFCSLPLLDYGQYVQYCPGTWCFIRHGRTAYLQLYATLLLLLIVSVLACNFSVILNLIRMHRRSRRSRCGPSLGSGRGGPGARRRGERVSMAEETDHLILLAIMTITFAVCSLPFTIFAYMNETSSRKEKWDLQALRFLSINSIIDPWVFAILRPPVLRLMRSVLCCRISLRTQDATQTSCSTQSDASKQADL
In short: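 IC50 values derive from duplicate-point curves of percent cAMP relative to DMSO, read by HTRF (665/620 nm) against a cAMP calibrator. Compounds (30 μM to 0.01 nM ranges) were given 45 min at room temperature before 30 min with 75 nM PGE2, in EP2-only SF295 cells with 2 mM IBMX.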

EP4 = target: T3, EP4 (Homo sapiens, UniProt P35408); assay: hEP4 cAMP Assay (BT549 breast cancer cells, HTRF cAMP, PGE2 6 nM); details: antagonistic activity, PGE2 6 nM (EC80)
T3 construct: BT549 breast cancer cells, express high endogenous EP4 levels and very low EP2 levels; host or cells: BT549 breast cancer cells
T3 sequence (P35408 whole entry): as the sequence (P35408 whole entry) above
In short: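 Antagonism is measured as inhibition of PGE2 (6 nM final, EC80) cAMP accumulation in EP4-expressing BT549 breast cancer cells, after a 45 min room-temperature compound pre-incubation and 30 min agonist step, with 2 mM IBMX present. HTRF ratio gives cAMP relative to DMSO; IC50 fitted, means over repeat runs.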

PTGER2 (EP2) = target: T4, PTGER2 (EP2) (Homo sapiens, UniProt P43116); assay: hEP2 b-Arrestin Assay (PathHunter HEK 293 PTGER2 b-arrestin cells, PGE2 5 μM); details: antagonistic activity, beta-arrestin assay, HEK 293 PTGER2 cells, PGE2 5 μM (EC80); read-out: hEP2 b-arr IC50
T4 construct: host or cells: HEK 293 (PathHunter, stably transfected)
T4 sequence (P43116 whole entry): as the sequence (P43116 whole entry) above
Experimental: as §1, §2
as §3, with “293 PTGER2” for “293 PTGER4”, “(DiscoverX 93-021-4C1)” for “(DiscoverX 93-030-4C1)”, “20 μl” for “20 ul”
as §4
PGE2 (Cayman 14010, stock solution: 10 mM in DMSO) is used as agonist at 5 μM final concentration, corresponding to EC80.
Five microliters of diluted compounds are transferred into the assay plate. Plate is pre-incubated 15 minutes at 37° C. Then five microliters of PGE2 (final conc. 5 μM) are transferred into the assay plate. Plate is incubated 120 minutes at 37° C.
as §5, §6, §7

| Compound | IC50 (PTGER4 (EP4)) [nM] | IC50 (EP2) [nM] | IC50 (EP4) [nM] | IC50 (PTGER2 (EP2)) [nM] |
| --- | --- | --- | --- | --- |
| Cc1c(C)n(C)c2c(CCNc3cc(-c4ccc(C(=O)O)c(OC5CCC5)c4)ncn3)cccc12 [Example 28, 2-Cyclobutoxy-4-{6-[2-(1,2,3-trimethyl-1H-indol-7-yl)-ethylamino]-pyrimidin-4-yl}-benzoic acid] | 1400 | 684 | 988 |  |
| CCOc1cc(-c2cc(NCCc3c(OC)ccc4c(OC)cccc34)ncn2)sc1C(=O)O [Example 53, 5-{6-[2-(2,5-Dimethoxy-naphthalen-1-yl)-ethylamino]-pyrimidin-4-yl}-3-ethoxy-thiophene-2-carboxylic acid] | 5 | 305 | 17 |  |
| CCOc1cc(-c2cc(NCCc3ccc(C(F)F)c4ccccc34)ncn2)ccc1C(=O)O [Example 71, 4-{6-[2-(4-Difluoromethyl-naphthalen-1-yl)-ethylamino]-pyrimidin-4-yl}-2-ethoxy-benzoic acid] | 91 | 374 | 128 |  |
| CCOc1cc(-c2cc(NCCc3c(F)ccc4ccccc34)ncn2)ccc1OCC(=O)O [Example 96, (2-Ethoxy-4-{6-[2-(2-fluoro-naphthalen-1-yl)-ethylamino]-pyrimidin-4-yl}-phenoxy)-acetic acid] |  | 180 | 426 | 66 |
| CCOc1cc(-c2cc(NCCc3c(F)ccc4ccccc34)ncn2)ccc1CC(=O)O [Example 97, (2-Ethoxy-4-{6-[2-(2-fluoro-naphthalen-1-yl)-ethylamino]-pyrimidin-4-yl}-phenyl)-acetic acid] |  | 218 | 355 | 132 |
| CCOc1cc(-c2cc(NCCc3cccc4ccsc34)ncn2)ccc1C(=O)O [Example 101, 4-[6-(2-Benzo[b]thiophen-7-yl-ethylamino)-pyrimidin-4-yl]-2-ethoxy-benzoic acid] |  | 129 | 619 | 128 |
| O=C(O)c1ccc(-c2cc(NCCc3cccc4ccsc34)ncn2)cc1OC1CCC1 [Example 102, 4-[6-(2-Benzo[b]thiophen-7-yl-ethylamino)-pyrimidin-4-yl]-2-cyclobutoxy-benzoic acid] |  | 224 | 263 | 145 |
| O=C(O)c1ccc(-c2cc(NCCc3cccc4sccc34)ncn2)cc1OC1CCC1 [Example 107, 4-[6-(2-Benzo[b]thiophen-4-yl-ethylamino)-pyrimidin-4-yl]-2-cyclobutoxy-benzoic acid] |  | 250 | 267 | 149 |
| CCOc1cc(-c2cc(NCCc3c(C)ccc4c3cnn4C)ncn2)ccc1O [Example 111, 4-{6-[2-(1,5-Dimethyl-1H-indazol-4-yl)-ethylamino]-pyrimidin-4-yl}-2-ethoxy-phenol] |  | 171 | 855 | 50 |
| COc1ccc2ncccc2c1CCNc1cc(-c2ccnc(N3CCCCC3)c2)ncn1 [Example 112, [2-(6-Methoxy-quinolin-5-yl)-ethyl]-[6-(3,4,5,6-tetrahydro-2H-[1,2′]bipyridinyl-4′-yl)-pyrimidin-4-yl]amine] |  | 210 | 685 | 190 |
| COc1ccc2ncccc2c1CCNc1cc(-c2ccc(-c3nnc(N)s3)cc2)ncn1 [Example 113, {6-[4-(5-Amino-[1,3,4]thiadiazol-2-yl)-phenyl]-pyrimidin-4-yl}-[2-(6-methoxy-quiolin-5-yl)-ethyl]-amine] |  | 27 | 459 | 47 |
| Cc1ccc2c(cnn2C)c1CCNc1cc(-c2ccc3ncccc3c2)ncn1 [Example 114, [2-(1,5-Dimethyl-1H-indazol-4-yl)-ethyl]-(6-quinolin-6-yl-pyrimidin-4-yl)-amine] |  | 35 | 492 | 224 |
| Cc1ccc2c(cnn2C)c1CCNc1cc(-c2ccc3ccncc3c2)ncn1 [Example 115, [2-(1,5-Dimethyl-1H-indazol-4-yl)-ethyl]-(6-isoquinolin-7-yl-pyrimidin-4-yl)-amine] |  | 95 | 493 | 245 |
| COc1ccc2ccccc2c1CCNc1cc(-c2ccc(C(=O)O)c(CC(C)C)c2)ncn1 [Example 122, 2-Isobutyl-4-{6-[2-(2-methoxy-naphthalen-1-yl)-ethylamino]-pyrimidin-4-yl}-benzoic acid] |  | 41 | 308 | 62 |
| CCCc1cc(-c2cc(NCCc3c(OC)ccc4ccccc34)ncn2)cc(F)c1C(=O)O [Example 123, 2-Fluoro-4-{6-[2-(2-methoxy-naphthalen-1-yl)-ethylamino]-pyrimidin-4-yl}-6-propyl-benzoic acid] |  | 29 | 550 | 31 |
| CCCCOc1cc(-c2cc(NCCc3c(OC)ccc4ccccc34)ncn2)cc(F)c1C(=O)O [Example 124, 2-Butoxy-6-fluoro-4-{6-[2-(2-methoxy-naphthalen-1-yl)-ethylamino]-pyrimidin-4-yl}-benzoic acid] |  | 100 | 446 | 35 |
| COc1ccc2ccccc2c1CCNc1cc(-c2cc3ccc(C(=O)O)cc3[nH]2)ncn1 [Example 127, 2-{6-[2-(2-Methoxy-naphthalen-1-yl)-ethylamino]-pyrimidin-4-yl}-1H-indole-6-carboxylic acid] |  | 20 | 416 | 9 |
| COc1ccc2ccccc2c1CCNc1cc(-c2cc3c(C(=O)O)cccc3[nH]2)ncn1 [Example 129, 2-{6-[2-(2-Methoxy-naphthalen-1-yl)-ethylamino]-pyrimidin-4-yl}-1H-indole-4-carboxylic acid] |  | 15 | 289 | 87 |
| COc1ccc2ccccc2c1CCNc1cc(-c2cc3cc(C(=O)O)ccc3[nH]2)ncn1 [Example 130, 2-{6-[2-(2-Methoxy-naphthalen-1-yl)-ethylamino]-pyrimidin-4-yl}-1H-indole-5-carboxylic acid] |  | 27 | 546 | 13 |
| CCOc1cc(-c2cc(NCCc3c(OC)ccc4ccccc34)ncn2)sc1CC(=O)O [Example 132, (3-Ethoxy-5-{6-[2-(2-methoxy-naphthalen-1-yl)-ethylamino]-pyrimidin-4-yl}-thiophen-2-yl)-acetic acid] |  | 49 | 381 | 61 |
| CCOc1cc(-c2cc(NCCc3c(OC)ccc4ncccc34)ncn2)sc1C(=N)NO [Example 146, 3-Ethoxy-N-hydroxy-5-{6-[2-(6-methoxy-quinolin-5-yl)-ethylamino]-pyrimidin-4-yl}-thiophene-2-carboxamidine] |  | 119 | 405 | 66 |
